# Source: ChEMBL document CHEMBL3797052 (Eur J Med Chem, 2016)
# What was measured:
# [1] = Antiproliferative activity against human PC3 cells assessed as growth inhibition after 48 hrs by sulforhodamine B assay; type: functional; details: PC-3, 48 h
# 786-0 [2] = assay: Antiproliferative activity against human 786-0 cells assessed as growth inhibition after 48 hrs by sulforhodamine B assay; type: functional; details: 786-0, 48 h
# SK-MEL-5 = assay: Antiproliferative activity against human SK-MEL-5 cells assessed as growth inhibition after 48 hrs by sulforhodamine B assay; type: functional; details: SK-MEL-5, 48 h; for CC50: read-out: LC50 (the source's name)
# [3] = Antiproliferative activity against human SF268 cells assessed as growth inhibition after 48 hrs by sulforhodamine B assay; type: functional; details: SF-268, 48 h
# KM12 = assay: Antiproliferative activity against human KM12 cells assessed as growth inhibition after 48 hrs by sulforhodamine B assay; type: functional; details: KM12, 48 h
# [4] = Antiproliferative activity against human HCC2998 cells assessed as growth inhibition after 48 hrs by sulforhodamine B assay; type: functional; details: HCC 2998, 48 h; for CC50: read-out: LC50 (the source's name)
# [5] = Antiproliferative activity against human HOP92 cells assessed as growth inhibition after 48 hrs by sulforhodamine B assay; type: functional; details: HOP-92, 48 h
# [6] = Antiproliferative activity against human MOLT4 cells assessed as growth inhibition after 48 hrs by sulforhodamine B assay; type: functional; details: MOLT-4, 48 h
# MDA-MB-468 [7] = assay: Antiproliferative activity against human MDA-MB-468 cells assessed as cell growth at […] after 48 hrs by sulforhodamine B assay; type: functional; details: MDA-MB-468, 48 h, read-out: Activity
# A549 [8] = assay: Antiproliferative activity against human A549/ATCC cells assessed as cell growth at […] after 48 hrs by sulforhodamine B assay; type: functional; details: A549, 48 h, read-out: Activity
# NCI-H522 = assay: Antiproliferative activity against human NCI-H522 cells assessed as cell growth at 10^-7 M after 48 hrs by sulforhodamine B assay; type: functional; details: NCI-H522, 48 h, read-out: Activity
# [9] = Antiproliferative activity against human SF268 cells assessed as cell growth at 10^-7 M after 48 hrs by sulforhodamine B assay; type: functional; details: SF-268, 48 h, read-out: Activity
# [10] = Antiproliferative activity against human SNB19 cells assessed as cell growth at 10^-7 M after 48 hrs by sulforhodamine B assay; type: functional; details: SNB-19, 48 h, read-out: Activity
# [11] = Antiproliferative activity against human LOXIMVI cells assessed as cell growth at 10^-7 M after 48 hrs by sulforhodamine B assay; type: functional; details: LOX IMVI, read-out: Activity
# A498 = assay: Antiproliferative activity against human A498 cells assessed as cell growth at 10^-7 M after 48 hrs by sulforhodamine B assay; type: functional; details: A498, 48 h, read-out: Activity
# [12] = Antiproliferative activity against human TK10 cells assessed as cell growth at 10^-7 M after 48 hrs by sulforhodamine B assay; type: functional; details: TK-10, 48 h, read-out: Activity
# CYP2C19 = CYP2C19 (Homo sapiens, UniProt P33261); assay: Inhibition of recombinant human CYP2C19 assessed as remaining enzyme activity at 10 uM after 5 mins in presence of NADP by fluorescence plate reader analysis; type: ADME; details: read-out: Activity
# Sequence of CYP2C19 (P33261 whole entry): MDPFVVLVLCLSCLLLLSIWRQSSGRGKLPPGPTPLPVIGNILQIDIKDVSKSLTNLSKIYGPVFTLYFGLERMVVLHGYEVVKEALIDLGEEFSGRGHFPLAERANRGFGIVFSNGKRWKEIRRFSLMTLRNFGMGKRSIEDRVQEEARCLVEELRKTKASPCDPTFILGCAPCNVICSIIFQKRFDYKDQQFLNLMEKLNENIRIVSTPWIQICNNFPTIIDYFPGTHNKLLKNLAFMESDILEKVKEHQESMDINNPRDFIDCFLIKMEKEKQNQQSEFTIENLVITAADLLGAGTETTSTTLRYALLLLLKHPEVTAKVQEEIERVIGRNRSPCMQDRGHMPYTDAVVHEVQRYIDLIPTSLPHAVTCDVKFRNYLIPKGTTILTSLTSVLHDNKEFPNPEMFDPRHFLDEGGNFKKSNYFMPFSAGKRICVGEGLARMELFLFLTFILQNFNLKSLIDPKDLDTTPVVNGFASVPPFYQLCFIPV
# K562 = assay: Antiproliferative activity against human K562 cells assessed as cell growth at 10^-8 M after 48 hrs by sulforhodamine B assay; type: functional; details: K562, 48 h, read-out: Activity
# A549 [13] = assay: Antiproliferative activity against human A549/ATCC cells assessed as cell growth at 10^-8 M after 48 hrs by sulforhodamine B assay; type: functional; details: A549, 48 h, read-out: Activity
# [14] = Antiproliferative activity against human HCT116 cells assessed as cell growth at 10^-8 M after 48 hrs by sulforhodamine B assay; type: functional; details: HCT-116, 48 h, read-out: Activity
# [15] = Antiproliferative activity against human BT549 cells assessed as cell growth at 10^-7 M after 48 hrs by sulforhodamine B assay; type: functional; details: BT-549, 48 h, read-out: Activity
# T47D = assay: Antiproliferative activity against human T47D cells assessed as cell growth at 10^-7 M after 48 hrs by sulforhodamine B assay; type: functional; details: read-out: Activity
# MDA-MB-468 [16] = assay: Antiproliferative activity against human MDA-MB-468 cells assessed as cell growth at 10^-7 M after 48 hrs by sulforhodamine B assay; type: functional; details: MDA-MB-468, 48 h, read-out: Activity
# NCI-H226 = assay: Antiproliferative activity against human NCI-H226 cells assessed as cell growth at 10^-6 M after 48 hrs by sulforhodamine B assay; type: functional; details: NCI-H226, 48 h, read-out: Activity
# HT-29 = assay: Antiproliferative activity against human HT-29 cells assessed as cell growth at 10^-6 M after 48 hrs by sulforhodamine B assay; type: functional; details: HT-29, 48 h, read-out: Activity
# Malme-3M = assay: Antiproliferative activity against human MALME-3M cells assessed as cell growth at 10^-6 M after 48 hrs by sulforhodamine B assay; type: functional; details: read-out: Activity
# CCRF-CEM = assay: Antiproliferative activity against human CCRF-CEM cells assessed as cell growth at 10^-4 M after 48 hrs by sulforhodamine B assay; type: functional; details: read-out: Activity
# [17] = Antiproliferative activity against human SNB19 cells assessed as cell growth at 10^-4 M after 48 hrs by sulforhodamine B assay; type: functional; details: SNB-19, 48 h, read-out: Activity
# [18] = Antiproliferative activity against human UACC62 cells assessed as cell growth at 10^-8 M after 48 hrs by sulforhodamine B assay; type: functional; details: UACC-62, 48 h, read-out: Activity
# [19] = Antiproliferative activity against human OVCAR4 cells assessed as cell growth at 10^-8 M after 48 hrs by sulforhodamine B assay; type: functional; details: OVCAR-4, 48 h, read-out: Activity
# 786-0 [20] = assay: Antiproliferative activity against human 786-0 cells assessed as cell growth at 10^-6 M after 48 hrs by sulforhodamine B assay; type: functional; details: 786-0, 48 h, read-out: Activity
# [21] = Antiproliferative activity against human PC3 cells assessed as cell growth at 10^-6 M after 48 hrs by sulforhodamine B assay; type: functional; details: PC-3, 48 h, read-out: Activity
# MDA-MB-231 = assay: Antiproliferative activity against human MDA-MB-231 cells assessed as cell growth at 10^-6 M after 48 hrs by sulforhodamine B assay; type: functional; details: MDA-MB-231, 48 h, read-out: Activity
# [22] = Antiproliferative activity against human OVCAR4 cells assessed as cell growth at 10^-4 M after 48 hrs by sulforhodamine B assay; type: functional; details: OVCAR-4, 48 h, read-out: Activity
# ACHN = assay: Antiproliferative activity against human ACHN cells assessed as cell growth at 10^-4 M after 48 hrs by sulforhodamine B assay; type: functional; details: read-out: Activity
# [23] = Antiproliferative activity against human MOLT4 cells assessed as cell growth at 10^-7 M after 48 hrs by sulforhodamine B assay; type: functional; details: MOLT-4, 48 h, read-out: Activity
smiles,measurement,setting,value
CNC(=O)c1cc(Oc2ccc(NC(=O)Nc3ccc(Cl)c(C(F)(F)F)c3)cc2)ccn1 [SORAFENIB],GI50,[1],2 µM
same,TGI,[1],7.94 µM
same,GI50,786-0 [2],3.16 µM
same,TGI,786-0 [2],10 µM
same,TGI,SK-MEL-5,3.16 µM
same,CC50,SK-MEL-5,5.01 µM
same,GI50,[3],2.51 µM
same,TGI,[3],10 µM
same,TGI,KM12,7.94 µM
same,GI50,[4],3.16 µM
same,TGI,[4],3.16 µM
same,CC50,[4],6.31 µM
same,TGI,[5],5.01 µM
same,GI50,[6],3.16 µM
same,TGI,[6],100 µM
CNC(=O)c1cc(Oc2ccc3nc(NC(=O)Nc4cc(C(F)(F)F)cc(C(F)(F)F)c4)sc3c2)ccn1,GI50,[1],0.611 µM
same,LC50,[1],7.07 µM
same,TGI,[1],2.29 µM
same,GI50,786-0 [2],1.42 µM
same,LC50,786-0 [2],5.76 µM
same,TGI,786-0 [2],2.86 µM
same,growth at 0.01 µM,MDA-MB-468 [7],84%
same,growth at 0.1 µM,A549 [8],109%
same,growth at 0.1 µM,NCI-H522,97%
same,growth at 0.1 µM,[9],90%
same,growth at 0.1 µM,[10],111%
same,GI50,SK-MEL-5,0.593 µM
same,TGI,SK-MEL-5,2.09 µM
same,CC50,SK-MEL-5,5.87 µM
same,growth at 0.1 µM,[11],93%
same,growth at 0.1 µM,A498,111%
same,growth at 0.1 µM,[12],109%
same,GI50,[3],1.27 µM
same,LC50 (concentration killing 50% of cells),[3],6.44 µM
same,TGI,[3],2.86 µM
same,GI50,KM12,0.444 µM
same,LC50,KM12,7.96 µM
same,TGI,KM12,2 µM
same,GI50,[4],1.33 µM
same,TGI,[4],3.23 µM
same,CC50,[4],7.85 µM
same,GI50,[5],0.301 µM
same,LC50,[5],5.14 µM
same,TGI,[5],0.949 µM
same,"activity at 5 min, 10 µM",CYP2C19,70.1%
same,growth at 0.01 µM,K562,104%
same,growth at 0.01 µM,A549 [13],104%
same,growth at 0.01 µM,[14],102%
same,growth at 0.1 µM,[15],96%
same,growth at 0.1 µM,T47D,89%
same,growth at 0.1 µM,MDA-MB-468 [16],91%
same,growth at 1 µM,NCI-H226,71%
same,growth at 1 µM,HT-29,61%
same,growth at 1 µM,Malme-3M,48%
same,growth at 100 µM,CCRF-CEM,-36%
same,growth at 100 µM,[17],-45%
same,growth at 0.01 µM,[18],93%
same,growth at 0.01 µM,[19],88%
same,growth at 1 µM,786-0 [20],75%
same,growth at 1 µM,[21],37%
same,growth at 1 µM,MDA-MB-231,46%
same,growth at 100 µM,[22],-57%
same,growth at 100 µM,ACHN,-80%
CNC(=O)c1cc(Oc2ccc3nc(NC(=O)Nc4ccc(Cl)c(C(F)(F)F)c4)sc3c2)ccn1,GI50,[1],1.42 µM
same,GI50,786-0 [2],1.79 µM
same,LC50,786-0 [2],6.48 µM
same,TGI,786-0 [2],3.4 µM
same,growth at 0.01 µM,MDA-MB-468 [7],86%
same,growth at 0.1 µM,[23],105%
same,growth at 0.1 µM,A549 [8],105%
same,growth at 0.1 µM,NCI-H522,95%
same,growth at 0.1 µM,[9],101%
same,growth at 0.1 µM,[10],100%
same,growth at 0.1 µM,[11],102%
same,growth at 0.1 µM,A498,97%
same,growth at 0.1 µM,[12],105%
same,GI50,[3],2.34 µM
same,LC50 (concentration killing 50% of cells),[3],> 100 µM
same,TGI,[3],16.4 µM
same,GI50,KM12,3.41 µM
same,LC50,KM12,> 100 µM
same,TGI,KM12,> 100 µM
same,TGI,[4],> 100 µM
same,CC50,[4],> 100 µM
same,GI50,[5],1.15 µM
same,LC50,[5],9.12 µM
same,TGI,[5],3.24 µM
same,LC50,[6],> 100 µM
same,TGI,[6],> 100 µM
same,"activity at 5 min, 10 µM",CYP2C19,79.9%
same,growth at 0.01 µM,K562,107%
same,growth at 0.01 µM,A549 [13],104%
same,growth at 0.01 µM,[14],101%
same,growth at 0.1 µM,[15],100%
same,growth at 0.1 µM,T47D,92%
same,growth at 0.1 µM,MDA-MB-468 [16],85%
same,growth at 1 µM,NCI-H226,98%
same,growth at 1 µM,HT-29,91%
same,growth at 1 µM,Malme-3M,79%
same,growth at 100 µM,CCRF-CEM,53%
same,growth at 100 µM,[17],-49%
same,growth at 0.01 µM,[18],95%
same,growth at 0.01 µM,[19],93%
same,growth at 1 µM,786-0 [20],95%
same,growth at 1 µM,[21],71%
same,growth at 1 µM,MDA-MB-231,66%
same,growth at 100 µM,[22],-15%
same,growth at 100 µM,ACHN,-62%
